Measurements taken from patent US20240067657A1, “AMIDO-SUBSTITUTED PYRIDYL COMPOUNDS AND METHODS OF USE THEREOF FOR THE TREATMENT OF HERPESVIRUSES” (Merck Sharp & Dohme LLC, priority 2020, published 2024).
Read-outs that look alike come from different tables or passages of the source.

Tests used:
[1] = molecular target: T1, Human cytomegalovirus DNA polymerase (Human cytomegalovirus, UniProt P08546); assay: HCMV polymerase assay (AlphaLISA, IC50); format: biochemical; conditions: polymerase assay of Example 190
T1 construct: made in house; host or cells: SF21 insect cells (baculovirus vector)
Protocol: (§1) Human cytomegalovirus and varicella zoster virus DNA polymerases were expressed via baculovirus vector in SF21 cells and purified. Heterodimeric nucleic acid substrate used in the herpesvirus polymerase reactions was generated by annealing a 59-mer template to a 17-mer digoxigenin-labeled primer. Polymerase (HCMV final concentration of 0.2 nM; VZV final concentration of 0.4 nM) was combined with an inhibitor compound or DMSO in assay buffer (10 mM HEPES, pH 7.5, 25 mM KCl, 25 mM NaCl, 5 mM MgCl2, 5% glycerol, 0.67 mg/ml bovine serum albuminutes, and 1 mM tris(2-carboxyethyl)phosphine), and this mixture was pre-incubated for 30 minutes at room temperature in 384-well microtiter plates. The polymerization reaction was initiated by the addition of template/primer substrate (final concentration: 1.6 nM), and dNTPs (final concentration: 24 nM dCTP, 24 nMdGTP, 16 nM dATP, 16 nM dTTP, and 0.8 nM biotin-dUTP). After 60 minutes incubation at 37° C., reactions were terminated with quench buffer (25 mM HEPES pH 7.5, 100 mM NaCl, 0.25% Tween-20, 12 mM EDTA, and 1 mg/ml bovine serum albumin). Incorporation of biotinylated UTP was detected with 2.5-5 ug/ml anti-DIG AlphaLISA acceptor beads and 5-10 ug/ml streptavidin AlphaLISA donor beads (Perkin Elmer). Compound effects were normalized to the window defined by the controls (DMSO only and pre-quenched wells), and were fit using a 4-parameter algorithm to report an IC50.

[2] = molecular target: T2, varicella zoster virus DNA polymerase (Varicella-zoster virus, UniProt P09252); assay: VZV polymerase assay (AlphaLISA, IC50); format: biochemical; conditions: polymerase assay of Example 190
T2 construct: made in house; host or cells: SF21 insect cells (baculovirus vector)
Protocol: as §1

[3] = test system: HCMV Strain AD169 in MRC-5 cells; assay: Viral qPCR assay HCMV (V0/V1, V2/V3), EC50; format: cell-based; conditions: Human betaherpesvirus 5, AD169, MRC5, viral qPCR assay of Example 191; read-out: HCMV Cell (EC50)
Protocol: (§2) Viral qPCR Assays (V0/V1)
(§3) MRC5 cells, Vero cells, and MeWo cells were obtained from ATCC and were maintained at 37° C./5% CO2/90% relative humidity in Minimal Essential Medium with 10% fetal bovine serum, […] L-glutamine, 100 units/ml penicillin and 100 ug/ml streptomycin. Assay plates were prepared by dispensing compounds dissolved in DMSO into wells of 384 well collagen-coated plates using an ECHO acoustic dispenser. Each compound was tested in a 10-point, serial 3-fold dilution. Controls included uninfected cells and infected cells treated only with DMSO. Assays were initiated by mixing selected cells, in suspension, with virus, and dispensing 50 μl/well infected cells to pre-plated compounds. Plates were incubated at 37° C./5% CO2/90% relative humidity for ˜72 hrs to permit genomic replication, and infected cells were lysed by the addition of an equal volume of lysis buffer (10 mM Tris-HCl, pH8, 50 mM KCl, 2 mM MgCl2, 0.45% NP-40, 0.45% Tween-20, and 100 μg/ml proteinase K). An aliquot of the lysate was transferred to a 384-well PCR plate and incubated at 56° C. for 1 hour and then at 95° C. for 10 min. Levels of a viral gene and of the cellular control, PPIA (Thermo Fisher Assay ID=Hs04194521_s1), were measured in separate 10 μL qPCR assays using TaqMan® Gene Expression Master Mix (Applied Biosystems), and an 7900HT Fast Real-Time PCR System with 384-Well Block Module. 7-point, serial 10-fold dilutions of a plasmid standard were run on each plate to generate a standard curve, and genome copies numbers were calculated by plotting experimental Ct onto linear regression of the standard curve. Viral genome copy numbers were normalized by cellular control copy number, and compound effects were normalized to the window defined by the controls. Calculated % effects were fit using a 4-parameter algorithm, and EC50 was reported.
(§4) Viral qPCR Assays (V2/V3)
as §3, with “gene” for “gene and of the cellular control, PPIA (Thermo Fisher Assay ID=Hs04194521_s1),”, “in” for “in separate”, “Compound effects on viral” for “Viral”, “number” for “numbers were normalized by cellular control copy number, and compound effects”, “reported. • HCMV: Strain AD169 Street was assayed in MRC-5 cells and was used at 0.05-0.1 pfu/cell. The assays were performed in either growth media or in the same media with 50% fetal bovine serum. Primer-probe set was Thermo Fisher Assay ID=AIFATFK. • VZV: Strain Street was maintained as an infected cell stock in MRC-5 cells. It was assayed in MeWo or MRC5 cells and was used at 0.04-0.1 pfu/cell. […]” for “reported.”

[4] = test system: VZV in MeWo or MRC5 cells; assay: Viral qPCR assay VZV (V0/V1, V2/V3), EC50; format: cell-based; conditions: 10%
Protocol: as §2, §3, §4
as §3, with “gene” for “gene and of the cellular control, PPIA (Thermo Fisher Assay ID=Hs04194521_s1),”, “in” for “in separate”, “Compound effects on viral” for “Viral”, “number” for “numbers were normalized by cellular control copy number, and compound effects”, “reported. • HCMV: Strain AD169 Street was assayed in MRC-5 cells and was used at 0.05-0.1 pfu/cell. The assays were performed in either growth media or in the same media with 50% fetal bovine serum. Primer-probe set was Thermo Fisher Assay ID=AIFATFK. • VZV: Strain Street was maintained as an infected cell stock in MRC-5 cells. It was assayed in MeWo or MRC5 cells and was used at 0.04-0.1 pfu/cell. […]” for “reported.”

[5] = test system: HSV-1 Strain F in Vero or MRC5 cells; assay: Viral qPCR assay HSV-1 (V0/V1, V2/V3), EC50; format: cell-based; conditions: 10%
Protocol: as §2, §3, §4
as §3, with “gene” for “gene and of the cellular control, PPIA (Thermo Fisher Assay ID=Hs04194521_s1),”, “in” for “in separate”, “Compound effects on viral” for “Viral”, “number” for “numbers were normalized by cellular control copy number, and compound effects”, “reported. • HCMV: Strain AD169 Street was assayed in MRC-5 cells and was used at 0.05-0.1 pfu/cell. The assays were performed in either growth media or in the same media with 50% fetal bovine serum. Primer-probe set was Thermo Fisher Assay ID=AIFATFK. • VZV: Strain Street was maintained as an infected cell stock in MRC-5 cells. It was assayed in MeWo or MRC5 cells and was used at 0.04-0.1 pfu/cell. […]” for “reported.”

[6] = Human alphaherpesvirus 3, MeWo, MEWO cells, read-out: VZV Cell (EC50) MEWO 10%
[7] = Human alphaherpesvirus 1, Vero, VERO cells, read-out: HSV1 Cell (EC50) VERO 10%
[8] = Human alphaherpesvirus 3, MRC5, MRC5 cells, read-out: VZV Cell (EC50) MRC5 10%
[9] = Human alphaherpesvirus 1, MRC5, MRC5 cells, read-out: HSV1 Cell (EC50) MRC5 10%

T1 sequence (P08546 whole entry): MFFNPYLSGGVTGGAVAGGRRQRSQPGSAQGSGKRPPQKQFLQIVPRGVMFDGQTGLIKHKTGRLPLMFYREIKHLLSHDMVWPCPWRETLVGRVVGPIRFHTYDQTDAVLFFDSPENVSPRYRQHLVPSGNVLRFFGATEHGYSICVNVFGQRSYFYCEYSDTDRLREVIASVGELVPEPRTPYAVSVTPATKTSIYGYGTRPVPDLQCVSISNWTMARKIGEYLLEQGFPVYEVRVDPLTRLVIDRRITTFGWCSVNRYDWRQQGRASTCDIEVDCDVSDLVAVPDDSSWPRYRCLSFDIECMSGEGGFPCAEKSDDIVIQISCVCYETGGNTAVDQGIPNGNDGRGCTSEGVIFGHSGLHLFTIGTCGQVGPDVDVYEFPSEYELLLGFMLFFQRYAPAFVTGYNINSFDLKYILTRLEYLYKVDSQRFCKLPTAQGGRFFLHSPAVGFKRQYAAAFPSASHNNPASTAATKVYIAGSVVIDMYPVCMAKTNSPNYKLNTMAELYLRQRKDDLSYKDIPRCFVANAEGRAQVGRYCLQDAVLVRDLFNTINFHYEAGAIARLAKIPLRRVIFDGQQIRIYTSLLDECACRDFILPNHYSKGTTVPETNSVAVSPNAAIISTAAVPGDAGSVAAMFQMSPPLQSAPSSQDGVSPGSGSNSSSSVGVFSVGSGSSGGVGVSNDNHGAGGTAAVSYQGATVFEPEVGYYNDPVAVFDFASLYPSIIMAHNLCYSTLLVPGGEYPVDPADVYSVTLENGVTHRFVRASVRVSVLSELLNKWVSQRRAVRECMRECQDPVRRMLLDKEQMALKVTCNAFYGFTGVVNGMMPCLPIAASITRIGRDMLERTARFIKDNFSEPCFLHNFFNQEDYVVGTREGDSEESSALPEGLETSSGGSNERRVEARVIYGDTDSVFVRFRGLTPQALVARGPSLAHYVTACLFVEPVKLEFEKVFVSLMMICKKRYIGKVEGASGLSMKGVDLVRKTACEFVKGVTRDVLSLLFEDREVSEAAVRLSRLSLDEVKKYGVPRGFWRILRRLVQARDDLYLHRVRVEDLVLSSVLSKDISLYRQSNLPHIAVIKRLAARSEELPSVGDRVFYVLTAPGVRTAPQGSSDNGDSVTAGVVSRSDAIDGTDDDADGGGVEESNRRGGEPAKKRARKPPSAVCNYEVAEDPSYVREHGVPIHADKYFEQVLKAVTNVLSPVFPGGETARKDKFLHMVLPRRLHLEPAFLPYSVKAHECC
T2 sequence (P09252 whole entry): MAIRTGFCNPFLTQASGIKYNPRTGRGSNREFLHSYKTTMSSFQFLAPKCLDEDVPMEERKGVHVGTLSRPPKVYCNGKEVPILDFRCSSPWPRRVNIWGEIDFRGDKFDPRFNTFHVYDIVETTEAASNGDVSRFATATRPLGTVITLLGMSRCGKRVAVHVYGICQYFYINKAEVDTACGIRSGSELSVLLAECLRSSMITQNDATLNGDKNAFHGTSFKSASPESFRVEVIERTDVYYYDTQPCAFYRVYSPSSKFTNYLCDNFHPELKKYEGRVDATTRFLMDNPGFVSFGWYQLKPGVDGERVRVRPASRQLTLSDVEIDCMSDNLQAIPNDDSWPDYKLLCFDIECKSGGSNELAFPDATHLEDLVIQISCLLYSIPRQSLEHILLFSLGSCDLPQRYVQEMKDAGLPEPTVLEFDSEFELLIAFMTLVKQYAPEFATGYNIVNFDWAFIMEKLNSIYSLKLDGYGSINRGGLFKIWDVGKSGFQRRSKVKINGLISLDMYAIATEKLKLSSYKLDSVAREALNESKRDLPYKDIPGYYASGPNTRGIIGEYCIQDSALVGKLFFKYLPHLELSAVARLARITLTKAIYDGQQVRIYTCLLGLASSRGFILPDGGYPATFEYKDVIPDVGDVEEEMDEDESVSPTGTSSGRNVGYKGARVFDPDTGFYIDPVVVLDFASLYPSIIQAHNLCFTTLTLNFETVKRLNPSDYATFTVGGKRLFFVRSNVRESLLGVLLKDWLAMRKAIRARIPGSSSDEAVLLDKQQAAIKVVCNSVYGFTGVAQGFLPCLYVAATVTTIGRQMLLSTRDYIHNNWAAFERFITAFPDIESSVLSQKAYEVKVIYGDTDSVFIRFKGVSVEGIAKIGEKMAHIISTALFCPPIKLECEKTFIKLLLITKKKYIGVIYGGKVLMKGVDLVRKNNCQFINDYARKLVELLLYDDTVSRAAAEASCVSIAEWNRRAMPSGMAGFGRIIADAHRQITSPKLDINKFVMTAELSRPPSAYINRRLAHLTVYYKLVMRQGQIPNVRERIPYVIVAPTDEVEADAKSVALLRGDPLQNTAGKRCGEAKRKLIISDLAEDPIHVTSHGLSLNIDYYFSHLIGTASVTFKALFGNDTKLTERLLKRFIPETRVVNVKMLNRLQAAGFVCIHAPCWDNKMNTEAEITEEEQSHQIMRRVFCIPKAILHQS

| SMILES | IC50 [1] | IC50 [2] | EC50 [3] | EC50 [4, 6] | EC50 [5, 7] | EC50 [4, 8] | EC50 [5, 9] |
| --- | --- | --- | --- | --- | --- | --- | --- |
| O=C(NCc1ccc(Cl)cc1)c1cc(O[C@H]2CCN3C(=O)OC[C@@H]3C2)c(-c2ccn(CC(F)(F)F)n2)cn1 [Compound 14] | 43.9 nM | 40.9 nM | 563 nM | 234 nM | 319 nM | – | – |
| CC(=O)N1CCC(Oc2cc(C(=O)NCc3ccc(Cl)cc3)ncc2-c2nnc(C)s2)CC1 [Compound 54] | 61.6 nM | 14.9 nM | 768 nM | – | – | 181 nM | 241 nM |
| Cc1ccn(-c2cnc(C(=O)NCc3ccc(Cl)cc3)cc2O[C@H]2CCN3C(=O)OC[C@@H]3C2)n1 [Compound 106] | 224 nM | 197 nM | 923 nM | 288 nM | 575 nM | – | – |
| Cc1cnc(-c2cnc(C(=O)NCc3ccc(Cl)cc3)cc2O[C@H]2CCN3C(=O)OC[C@@H]3C2)s1 [Compound 41] | 5 nM | 3.88 nM | 89.9 nM | 70.8 nM | 12.2 nM | 97.4 nM | 39 nM |
| O=C(NCc1ccc(Cl)cc1F)c1cc(O[C@H]2CCN3C(=O)OC[C@@H]3C2)c(-c2cnn(C(F)F)c2)cn1 [Compound 8] | 26.2 nM | 33.3 nM | 440 nM | 368 nM | 259 nM | – | – |
| CC(=O)N1CCC(Oc2cc(C(=O)NCc3ccc(Cl)cc3)ncc2-c2cnn(C)c2)CC1 [Compound 6] | 79 nM | 30.8 nM | 342 nM | 84.5 nM | 144 nM | – | – |
| O=C(NCc1ccc(Cl)cc1)c1cc(O[C@H]2CCN3C(=O)OC[C@@H]3C2)c(-c2cc[nH]n2)cn1 [Compound 18] | 15.7 nM | 10.5 nM | 120 nM | 392 nM | 836 nM | 126 nM | 194 nM |
| CC(C)(C)n1cc(-c2cnc(C(=O)NCc3ccc(Cl)cc3)cc2O[C@H]2CCN3C(=O)OC[C@@H]3C2)cn1 (racemic) [Compound 12] | 70.5 nM | 69.6 nM | 1160 nM | 977 nM | 882 nM | – | – |
| COCCn1ccc(-c2cnc(C(=O)NCc3ccc(Cl)cc3)cc2O[C@H]2CCN3C(=O)OC[C@@H]3C2)n1 [Compound 28] | 14.7 nM | 12.7 nM | 325 nM | 422 nM | 327 nM | – | – |
| COC1CC(c2cnc(C(=O)NCc3ccc(Cl)cc3)cc2O[C@H]2CCN3C(=O)OC[C@@H]3C2)C1 (stereo partly drawn) [Compound 110] | 22 nM | 4.84 nM | 354 nM | – | – | 1520 nM | 998 nM |

Continued, in another order:

| IC50 [1] | IC50 [2] | SMILES | EC50 [3] | EC50 [4, 6] | EC50 [5, 7] | EC50 [4, 8] | EC50 [5, 9] |
| --- | --- | --- | --- | --- | --- | --- | --- |
| 17.8 nM | 12.9 nM | O=C(NCc1ccc(Cl)cc1)c1cc(O[C@H]2CCN3C(=O)OC[C@@H]3C2)c(CN2CCC3OCCC32)cn1 (mixture of isomers) [Compound 142] | 243 nM | – | 453 nM | 490 nM | – |
| 33 nM | 13.3 nM | O=C(NCc1ccc(Cl)cc1)c1cc(O[C@H]2CCN3C(=O)OC[C@@H]3C2)c(CN2CCSCC2)cn1 [Compound 139] | 417 nM | – | 545 nM | 1180 nM | – |
| 35 nM | 36.7 nM | CO[C@H]1CN(Cc2cnc(C(=O)NCc3ccc(Cl)cc3)cc2O[C@H]2CCN3C(=O)OC[C@@H]3C2)[C@@H]1C (mixture of isomers) [Compound 137] | 575 nM | – | 602 nM | 1420 nM | – |
| 89.1 nM | 43.4 nM | Cc1c[n+]([O-])c(C(=O)NCc2ccc(Cl)cc2)cc1O[C@H]1CCN2C(=O)OC[C@@H]2C1 [Compound 130] | 557 nM | 252 nM | 496 nM | – | – |
| 124 nM | 95.4 nM | CC1(O)CCN(Cc2cnc(C(=O)NCc3ccc(Cl)cc3)cc2O[C@H]2CCN3C(=O)OC[C@@H]3C2)C1 (mixture of isomers) [Compound 134] | 1930 nM | – | 5850 nM | 3970 nM | – |
| 28.6 nM | 8.55 nM | CC(=O)N1CCC(Oc2cc(C(=O)NCc3ccc(Cl)cc3)ncc2-c2cnn(C(F)F)c2)CC1C (stereo not drawn) [Compound 167] | 198 nM | – | – | 679 nM | 423 nM |
| 59.2 nM | 19.3 nM | Cn1cc(-c2cnc(C(=O)NCc3ccc(Cl)cc3)cc2OC2CCN3C(=O)OCC3(C)C2)cn1 (stereo not drawn) [Compound 159] | 441 nM | 277 nM | 329 nM | – | – |
| 25.8 nM | 16.6 nM | O=C(NCc1ccc(Cl)cc1)c1cc(O[C@H]2CCN3C(=O)OC[C@@H]3C2)c(OCC(F)(F)F)cn1 [Compound 126] | 572 nM | 488 nM | 154 nM | 1460 nM | 1960 nM |
| 3.08 nM | 2.42 nM | O=C(NCc1ccc(Cl)cc1)c1cc(O[C@H]2CCN3C(=O)OCC[C@@H]3C2)c(-c2cnn(C(F)F)c2)cn1 (single isomer, unassigned) [Compound 162-1] | 88.6 nM | 61.1 nM | 77 nM | 447 nM | 107 nM |
| 11.8 nM | 11 nM | CC(C)n1cc(-c2c[n+]([O-])c(C(=O)NCc3ccc(Cl)cc3)cc2O[C@H]2CCN3C(=O)OC[C@@H]3C2)cn1 [Compound 131] | 98.5 nM | 158 nM | 268 nM | – | – |
